Test results as given in BigSolDB 2.1.

CC(CCc1ccccc1)NCC(O)c1ccc(O)c(C(N)=O)c1.Cl (stereo unspecified)
solubility (mole fraction)
Settings	in ethanol	in ethyl acetate	in isobutanol	in isopropanol	in methanol	in n-butanol	in n-propanol	in sec-butanol	in water
288.15 K	0.00124	0.000116	0.000136	0.00011	0.00883	0.000385	0.000478	0.000167	0.000711
293.15 K	0.00145	0.000163	0.000184	0.000164	0.0101	0.000467	0.00058	0.000211	0.000898
298.15 K	0.0017	0.000237	0.000257	0.000253	0.0114	0.000565	0.00071	0.000278	0.00118
303.15 K	0.00198	0.000302	0.000326	0.000355	0.013	0.000675	0.000841	0.000336	0.00145
308.15 K	0.00222	0.000406	0.000429	0.000492	0.0144	0.000808	0.001	0.000411	0.00172
313.15 K	0.00253	0.000531	0.00056	0.000675	0.0162	0.000967	0.00121	0.000515	0.00212
318.15 K	0.00288	0.000689	0.000729	0.000985	0.0182	0.00116	0.00144	0.000643	0.00266
323.15 K	0.0035	0.000823	0.000981	0.0014	0.0204	0.00136	0.00173	0.000804	0.00337
328.15 K	0.00395	0.00109	0.00126	0.00194	0.0228	0.00163	0.00194	0.000983	0.00409
